Experimental data: ChEMBL document CHEMBL1201862, “PubChem BioAssay data set” (2004)
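A five-concentration, 48-hour dose response in 96-well plates underlies each endpoint, interpolated linearly between surrounding concentrations. GI50 = concentration required for 50% inhibition of growth.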 The source made the active and inactive calls. Cut-off read from the data, not from the text of the source: active = GI50 up to about 1.1 µM and inactive = higher.

How the values were obtained:
Assay in all cases: NCI tumour cell line growth inhibition, 48 h
[1] = test system: DMS-273
[2] = test system: EKVX
[3] = test system: HOP-18
[4] = test system: HOP-62
[5] = test system: HOP-92
[6] = test system: HT-29
[7] = test system: KM12
[8] = test system: LOX IMVI
[9] = test system: LXFL 529
[10] = test system: Malme-3M
[11] = test system: NCI-H226
[12] = test system: NCI-H23
[13] = test system: NCI-H522
[14] = test system: SK-MEL-28
[15] = test system: SK-MEL-2
[16] = test system: SK-OV-3
[17] = test system: SN12C
[18] = test system: SNB-75
[19] = test system: SNB-78
[20] = test system: SW-620
[21] = test system: TK-10
[22] = test system: 786-0
[23] = test system: A549
[24] = test system: CCRF-CEM
[25] = test system: DMS-114
[26] = test system: HCC 2998
[27] = test system: HCT-116
[28] = test system: HCT-15
[29] = test system: HL-60
[30] = test system: K562
[31] = test system: M14
[32] = test system: MOLT-4
[33] = test system: NCI-H460
[34] = test system: OVCAR-3
[35] = test system: RPMI-8226
[36] = test system: RXF 393
[37] = test system: SF-268
[38] = test system: U-251
[39] = test system: UO-31
[40] = test system: ACHN
[41] = test system: COLO 205
[42] = test system: IGROV-1
[43] = test system: KM-20L2
[44] = test system: M19-MEL
[45] = test system: OVCAR-4
[46] = test system: OVCAR-5
[47] = test system: OVCAR-8
[48] = test system: SF-539
[49] = test system: SK-MEL-5
[50] = test system: SNB-19
[51] = test system: SR
[52] = test system: UACC-257
[53] = test system: UACC-62
[54] = test system: A498
[55] = test system: CAKI-1
[56] = test system: DLD-1
[57] = test system: SF-295

**Q.** For `CC(C)C(=O)CC(c1ccc(Cl)cc1)N1N=C(C(C)C)CC1c1ccc(Cl)cc1` (configuration not stated), which GI50 [1] is on record?
**A.** < 0.01 µM (active)

**Q.** And the GI50 [2]?
**A.** 29.5 µM (inactive)

**Q.** And the GI50 [3]?
**A.** < 0.01 µM (active)

**Q.** And the GI50 [4]?
**A.** 70 µM (inactive)

**Q.** What about the GI50 [5] of the same compound?
**A.** > 86.3 µM (inactive)

**Q.** What about the GI50 [6] of the same compound?
**A.** 14.6 µM (inactive)

**Q.** And the GI50 [7]?
**A.** 40.6 µM (inactive)

**Q.** And the GI50 [8]?
**A.** < 0.01 µM (active)

**Q.** And the GI50 [9]?
**A.** 98.4 µM (inactive)

**Q.** What about the GI50 [10] of the same compound?
**A.** < 0.01 µM (active)

**Q.** And the GI50 [11]?
**A.** > 100 µM (inactive)

**Q.** What about the GI50 [12] of the same compound?
**A.** 22.6 µM (inactive)

**Q.** And the GI50 [13]?
**A.** < 0.01 µM (active)

**Q.** And the GI50 [14]?
**A.** 40.7 µM (inactive)

**Q.** And the GI50 [15]?
**A.** > 51.5 µM (inactive)

**Q.** And the GI50 [16]?
**A.** < 0.01 µM (active)

**Q.** And the GI50 [17]?
**A.** < 0.01 µM (active)

**Q.** What about the GI50 [18] of the same compound?
**A.** 86.9 µM (inactive)

**Q.** And the GI50 [19]?
**A.** 5.97 µM (inactive)

**Q.** What about the GI50 [20] of the same compound?
**A.** 37.2 µM (inactive)

**Q.** And the GI50 [21]?
**A.** > 100 µM (inactive)

**Q.** Which results are given for `CCOc1ccccc1NC(=O)C(=O)C1C(=O)Nc2ccccc2[S+]1[O-]` (configuration not stated)?
**A.** GI50 [22]: > 100 µM (inactive); GI50 [23]: > 100 µM (inactive); GI50 [24]: > 100 µM (inactive); GI50 [25]: > 100 µM (inactive); GI50 [1]: > 100 µM (inactive); GI50 [26]: > 100 µM (inactive); GI50 [27]: > 100 µM (inactive); GI50 [28]: > 100 µM; GI50 [29]: > 100 µM (inactive); GI50 [3]: > 100 µM (inactive); GI50 [30]: > 100 µM (inactive); GI50 [9]: > 100 µM (inactive); GI50 [31]: > 100 µM (inactive); GI50 [32]: > 100 µM (inactive); GI50 [10]: > 100 µM (inactive); GI50 [33]: > 100 µM (inactive); GI50 [13]: > 100 µM (inactive); GI50 [34]: > 100 µM (inactive); GI50 [35]: > 100 µM (inactive); GI50 [36]: > 100 µM (inactive); GI50 [37]: > 100 µM (inactive); GI50 [14]: > 100 µM (inactive); GI50 [15]: > 100 µM (inactive); GI50 [16]: > 100 µM (inactive); GI50 [19]: > 100 µM (inactive); GI50 [38]: > 100 µM (inactive); GI50 [39]: > 100 µM (inactive)

**Q.** What does the source list for `COc1ccc(-c2nnc(-c3nsc4ccccc34)o2)cc1`?
**A.** GI50 [23]: 78.5 µM (inactive); GI50 [40]: 33 µM (inactive); GI50 [41]: > 100 µM (inactive); GI50 [25]: 58.1 µM (inactive); GI50 [1]: 71.4 µM (inactive); GI50 [2]: 38.8 µM (inactive); GI50 [26]: 77.4 µM (inactive); GI50 [27]: 38.4 µM (inactive); GI50 [28]: 31.6 µM; GI50 [3]: 0.571 µM (active); GI50 [4]: 44.3 µM (inactive); GI50 [5]: 43.2 µM (inactive); GI50 [6]: 67.6 µM (inactive); GI50 [42]: 58.6 µM (inactive); GI50 [43]: > 100 µM (inactive); GI50 [7]: 49 µM (inactive); GI50 [8]: 47.9 µM (inactive); GI50 [9]: 54.5 µM (inactive); GI50 [31]: 80.9 µM (inactive); GI50 [44]: > 100 µM (inactive); GI50 [12]: > 100 µM (inactive); GI50 [33]: 45.4 µM (inactive); GI50 [34]: 28.3 µM (inactive); GI50 [45]: 65.9 µM (inactive); GI50 [46]: > 100 µM (inactive); GI50 [47]: 93.5 µM (inactive); GI50 [35]: 19.3 µM (inactive); GI50 [36]: 32.5 µM (inactive); GI50 [37]: 65.6 µM (inactive); GI50 [48]: 31.2 µM (inactive); GI50 [14]: > 100 µM (inactive); GI50 [15]: > 100 µM (inactive); GI50 [49]: 61.9 µM (inactive); GI50 [17]: 59.4 µM (inactive); GI50 [50]: > 100 µM (inactive); GI50 [18]: 17.5 µM (inactive); GI50 [19]: > 100 µM (inactive); GI50 [51]: 31.9 µM (inactive); GI50 [20]: > 100 µM (inactive); GI50 [21]: > 100 µM (inactive); GI50 [38]: 79.6 µM (inactive); GI50 [52]: > 100 µM (inactive); GI50 [53]: > 100 µM (inactive); GI50 [39]: 25.2 µM (inactive)

**Q.** What does the source list for `COc1cc(C(C)c2cc3c(cc2OCCCCCOc2cc4c(cc2C(C)c2cc(OC)c(OC)c(OC)c2)OCO4)OCO3)cc(OC)c1OC` (configuration not stated)?
**A.** GI50 [22]: > 100 µM (inactive); GI50 [54]: > 100 µM (inactive); GI50 [23]: > 100 µM (inactive); GI50 [40]: > 100 µM (inactive); GI50 [55]: > 100 µM (inactive); GI50 [24]: > 100 µM (inactive); GI50 [56]: > 100 µM (inactive); GI50 [1]: > 100 µM (inactive); GI50 [2]: > 100 µM (inactive); GI50 [26]: > 100 µM (inactive); GI50 [27]: > 100 µM (inactive); GI50 [28]: > 100 µM; GI50 [29]: > 100 µM (inactive); GI50 [4]: > 100 µM (inactive); GI50 [6]: > 100 µM (inactive); GI50 [42]: > 100 µM (inactive); GI50 [30]: > 100 µM (inactive); GI50 [43]: > 100 µM (inactive); GI50 [7]: > 100 µM (inactive); GI50 [8]: > 100 µM (inactive); GI50 [9]: > 100 µM (inactive); GI50 [31]: > 100 µM (inactive); GI50 [44]: > 100 µM (inactive); GI50 [32]: > 100 µM (inactive); GI50 [10]: > 100 µM (inactive); GI50 [11]: > 100 µM (inactive); GI50 [12]: > 100 µM (inactive); GI50 [33]: > 100 µM (inactive); GI50 [13]: > 100 µM (inactive); GI50 [34]: > 100 µM (inactive); GI50 [45]: > 100 µM (inactive); GI50 [46]: > 100 µM (inactive); GI50 [47]: > 100 µM (inactive); GI50 [35]: > 100 µM (inactive); GI50 [36]: > 100 µM (inactive); GI50 [37]: > 100 µM (inactive); GI50 [57]: > 100 µM (inactive); GI50 [48]: > 100 µM (inactive); GI50 [14]: > 100 µM (inactive); GI50 [15]: > 100 µM (inactive); GI50 [49]: > 100 µM (inactive); GI50 [17]: > 100 µM (inactive); GI50 [50]: > 100 µM (inactive); GI50 [18]: 59.8 µM (inactive); GI50 [51]: > 100 µM (inactive); GI50 [20]: > 100 µM (inactive); GI50 [38]: > 100 µM (inactive); GI50 [52]: 33.7 µM (inactive); GI50 [53]: > 100 µM (inactive); GI50 [39]: > 100 µM (inactive)
